The source of these data is patent publication US7932255B2, “2-aminocarbonyl substituted piperazine or diaza-cyclic compounds as apoptosis protein inhibitors (lap) modulators” (Novartis AG, priority 2006, dated 2011).

Molecules are shown by their SMILES.

For one assay, the target named is T1, XIAP (Homo sapiens, UniProt P98170).
T1 construct: GST
T1 sequence (P98170 248-358 limits assumed, species assumed): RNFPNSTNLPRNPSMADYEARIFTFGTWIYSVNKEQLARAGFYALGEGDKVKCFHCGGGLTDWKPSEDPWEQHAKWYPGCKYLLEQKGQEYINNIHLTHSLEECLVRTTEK
The experiment in a line: Disruption of the Smac peptide-(XIAP)BIR3 protein-protein interaction (Tables 2 and 3). Type of assay: binding.
Details: not given
As to the method: IC50 values for Series A compounds for XIAP. An assay capable of measuring disruption of the Smac peptide-(XIAP)BIR3 protein-protein interaction is established in the art as described in Example 2. In this assay IAP Inhibitor compounds compete with an immobilized Smac peptide for occupancy of the BIR3 binding pocket of XIAP. The rationale for this strategy results from the mutually exclusive nature of either Caspase 9 or Smac binding to the BIR3 pocket.
Assays are performed and IC50 values are calculated as follows: […]
IC50 values are calculated by logarithmic regression analysis of the percentage inhibition of each compound at 4 concentrations (usually 3- or 10-fold dilution series starting at 10 μM). In each experiment, the actual inhibition by reference compound is used for normalization of IC50 values to the basis of an average value of the reference inhibitor: Normalized IC50=measured IC50 average ref. IC50/measured ref. IC50
Activity determinations of compounds herein using the testing method described herein and as are well known in the art, are used with the following test compounds of formula (I). […] “Activity” as used herein is defined as having IC50 values for IAP target inhibition of less than 10 μM. Specifically, in the table:
IC50 values for Series B compounds are provided for XIAP. Assays are performed as described above using methods well known in the art.
For the compound `CN[C@@H](C)C(=O)N[C@H](C(=O)N1CCN(C(=O)Oc2ccc(F)cc2)C[C@H]1C(=O)NC1CCCc2ccccc21)C(C)C` (stereo partly drawn) [Compound 34, (S)-4-[(S)-3-Methyl-2-((S)-2-methylamino-propionylamino)-butyryl]-3-(1,2,3,4-tetrahydro-naphthalen-1-ylcarbamoyl)-piperazine-1-carboxylic acid 4-fluoro-phenyl ester], the IC50 was below 10 µM.

Staying with this assay, now noted: Series A compounds, Table 2; read-out: XIAP IC50.
As to `CN[C@@H](C)C(=O)N[C@H](C(=O)N1CCN(Cc2ccc(OC(F)(F)F)cc2)C[C@H]1C(=O)NC1CCCc2ccccc21)C(C)C` (stereo partly drawn) [Compound 23, (S)-1-[(S)-3-Methyl-2-((S)-2-methylamino-propionylamino)-butyryl]-4-(4-trifluoromethoxy-benzyl)-piperazine-2-carboxylic acid (1,2,3,4-tetrahydro-naphthalen-1-yl)-amide], the IC50 was below 10 µM.

For `CN[C@@H](C)C(=O)N[C@H](C(=O)N1CCN(CCC(C)C)C[C@H]1C(=O)NC1CCCc2ccccc21)C(C)C` (stereo partly drawn) [Compound 24, (S)-4-(3-Methyl-butyl)-1-[(S)-3-methyl-2-((S)-2-methylamino-propionylamino)-butyryl]-piperazine-2-carboxylic acid (1,2,3,4-tetrahydro-naphthalen-1-yl)-amide], the IC50 was below 10 µM.

On to `CCCN1CCN(C(=O)[C@@H](NC(=O)[C@H](C)NC)C(C)C)[C@H](C(=O)NC2CCCc3ccccc32)C1` (stereo partly drawn) [Compound 25, (S)-1-[(S)-3-Methyl-2-((S)-2-methylamino-propionylamino)-butyryl]-4-propyl-piperazine-2-carboxylic acid (1,2,3,4-tetrahydro-naphthalen-1-yl)-amide], for which the IC50 is below 10 µM.

On to `CN[C@@H](C)C(=O)N[C@H](C(=O)N1CCN(S(=O)(=O)CCC(F)(F)F)C[C@H]1C(=O)NC1CCCc2ccccc21)C(C)C` (stereo partly drawn) [Compound 26, (S)-1-[(S)-3-Methyl-2-((S)-2-methylamino-propionylamino)-butyryl]-4-(3,3,3-trifluoro-propane-1-sulfonyl)-piperazine-2-carboxylic acid (1,2,3,4-tetrahydro-naphthalen-1-yl)-amide], for which the IC50 was below 10 µM.

On to `CN[C@@H](C)C(=O)N[C@H](C(=O)N1CCN(C(=O)c2ccc(NC(C)=O)cc2)C[C@H]1C(=O)NC1CCCc2ccccc21)C(C)C` (stereo partly drawn) [Compound 27, (S)-4-(4-Acetylamino-benzoyl)-1-[(S)-3-methyl-2-((S)-2-methylamino-propionylamino)-butyryl]-piperazine-2-carboxylic acid (1,2,3,4-tetrahydro-naphthalen-1-yl)-amide], for which the IC50 is below 10 µM.

As for `CN[C@@H](C)C(=O)N[C@H](C(=O)N1CCN(C(=O)NC2CCCC2)C[C@H]1C(=O)NC1CCCc2ccccc21)C(C)C` (stereo partly drawn) [Compound 28, (S)-4-[(S)-3-Methyl-2-((S)-2-methylamino-propionylamino)-butyryl]-piperazine-1,3-dicarboxylic acid 1-cyclopentylamide 3-[(1,2,3,4-tetrahydro-naphthalen-1-yl)-amide]], the IC50 was below 10 µM.

As for `CN[C@@H](C)C(=O)N[C@H](C(=O)N1CCN(Cc2cccc(OC)c2)C[C@H]1C(=O)NC1CCCc2ccccc21)C(C)C` (stereo partly drawn) [Compound 29, (S)-4-(3-Methoxy-benzyl)-1-[(S)-3-methyl-2-((S)-2-methylamino-propionylamino)-butyryl]-piperazine-2-carboxylic acid (1,2,3,4-tetrahydro-naphthalen-1-yl)-amide], the IC50 is below 10 µM.

With `CN[C@@H](C)C(=O)N[C@H](C(=O)N1CCN(S(C)(=O)=O)C[C@H]1C(=O)NC1CCCc2ccccc21)C(C)C` (stereo partly drawn) [Compound 30, (S)-4-Methanesulfonyl-1-[(S)-3-methyl-2-((S)-2-methylamino-propionylamino)-butyryl]-piperazine-2-carboxylic acid (1,2,3,4-tetrahydro-naphthalen-1-yl)-amide], the IC50 was below 10 µM.

Regarding `CN[C@@H](C)C(=O)N[C@H](C(=O)N1CCN(C(=O)OCC(C)C)C[C@H]1C(=O)NC1CCCc2ccccc21)C(C)C` (stereo partly drawn) [Compound 31, (S)-4-[(S)-3-Methyl-2-((S)-2-methylamino-propionylamino)-butyryl]-3-(1,2,3,4-tetrahydro-naphthalen-1-ylcarbamoyl)-piperazine-1-carboxylic acid isobutyl ester], the IC50 is below 10 µM.

With `CCN1CCN(C(=O)[C@@H](NC(=O)[C@H](C)NC)C(C)C)[C@H](C(=O)NC2CCCc3ccccc32)C1` (stereo partly drawn) [Compound 32, (S)-4-Ethyl-1-[(S)-3-methyl-2-((S)-2-methylamino-propionylamino)-butyryl]-piperazine-2-carboxylic acid (1,2,3,4-tetrahydro-naphthalen-1-yl)-amide], the IC50 is below 10 µM.

Consider `CCCCN1CCN(C(=O)[C@@H](NC(=O)[C@H](C)NC)C(C)C)[C@H](C(=O)NC2CCCc3ccccc32)C1` (stereo partly drawn) [Compound 33, (S)-4-Butyl-1-[(S)-3-methyl-2-((S)-2-methylamino-propionylamino)-butyryl]-piperazine-2-carboxylic acid (1,2,3,4-tetrahydro-naphthalen-1-yl)-amide], for which the IC50 is below 10 µM.

Take `CN[C@@H](C)C(=O)N[C@H](C(=O)N1CCN(S(=O)(=O)c2ccc(F)cc2)C[C@H]1C(=O)NC1CCCc2ccccc21)C(C)C` (stereo partly drawn) [Compound 35, (S)-4-(4-Fluoro-benzenesulfonyl)-1-[(S)-3-methyl-2-((S)-2-methylamino-propionylamino)-butyryl]-piperazine-2-carboxylic acid (1,2,3,4-tetrahydro-naphthalen-1-yl)-amide]: the IC50 was below 10 µM.

Consider `CN[C@@H](C)C(=O)N[C@H](C(=O)N1CCN(CC2CC2)C[C@H]1C(=O)NC1CCCc2ccccc21)C(C)C` (stereo partly drawn) [Compound 36, (S)-4-Cyclopropylmethyl-1-[(S)-3-methyl-2-((S)-2-methylamino-propionylamino)-butyryl]-piperazine-2-carboxylic acid (1,2,3,4-tetrahydro-naphthalen-1-yl)-amide], for which the IC50 was below 10 µM.

As to `CN[C@@H](C)C(=O)N[C@H](C(=O)N1CCN(Cc2ccccc2OC)C[C@H]1C(=O)NC1CCCc2ccccc21)C(C)C` (stereo partly drawn) [Compound 37, (S)-4-(2-Methoxy-benzyl)-1-[(S)-3-methyl-2-((S)-2-methylamino-propionylamino)-butyryl]-piperazine-2-carboxylic acid (1,2,3,4-tetrahydro-naphthalen-1-yl)-amide], the IC50 was below 10 µM.

For `CN[C@@H](C)C(=O)N[C@H](C(=O)N1CCN(CCOC)C[C@H]1C(=O)NC1CCCc2ccccc21)C(C)C` (stereo partly drawn) [Compound 38, (S)-4-(2-Methoxy-ethyl)-1-[(S)-3-methyl-2-((S)-2-methylamino-propionylamino)-butyryl]-piperazine-2-carboxylic acid (1,2,3,4-tetrahydro-naphthalen-1-yl)-amide], the IC50 was below 10 µM.

As for `CN[C@@H](C)C(=O)N[C@H](C(=O)N1CCN(C(=O)NC(C)(C)C)C[C@H]1C(=O)NC1CCCc2ccccc21)C(C)C` (stereo partly drawn) [Compound 39, (S)-4-[(S)-3-Methyl-2-((S)-2-methylamino-propionylamino)-butyryl]-piperazine-1,3-dicarboxylic acid 1-tert-butylamide 3-[(1,2,3,4-tetrahydro-naphthalen-1-yl)-amide]], the IC50 is below 10 µM.

Take `CN[C@@H](C)C(=O)N[C@H](C(=O)N1CCN(C(=O)Nc2ccc(F)cc2)C[C@H]1C(=O)NC1CCCc2ccccc21)C(C)C` (stereo partly drawn) [Compound 40, (S)-4-[(S)-3-Methyl-2-((S)-2-methylamino-propionylamino)-butyryl]-piperazine-1,3-dicarboxylic acid 1-[(4-fluoro-phenyl)-amide] 3-[(1,2,3,4-tetrahydro-naphthalen-1-yl)-amide]]: the IC50 was below 10 µM.

For `CN[C@@H](C)C(=O)N[C@H](C(=O)N1CCN(C(=O)Nc2ccccc2)C[C@H]1C(=O)NC1CCCc2ccccc21)C(C)C` (stereo partly drawn) [Compound 41, (S)-4-[(S)-3-Methyl-2-((S)-2-methylamino-propionylamino)-butyryl]-piperazine-1,3-dicarboxylic acid 1-phenylamide 3-[(1,2,3,4-tetrahydro-naphthalen-1-yl)-amide]], the IC50 is below 10 µM.

`CN[C@@H](C)C(=O)N[C@H](C(=O)N1CCN(S(=O)(=O)c2sccc2-c2ccno2)C[C@H]1C(=O)NC1CCCc2ccccc21)C(C)C` (stereo partly drawn) [Compound 42, (S)-4-(3-Isoxazol-5-yl-thiophene-2-sulfonyl)-1-[(S)-3-methyl-2-((S)-2-methylamino-propionylamino)-butyryl]-piperazine-2-carboxylic acid (1,2,3,4-tetrahydro-naphthalen-1-yl)-amide]: the IC50 was below 10 µM.

Regarding `CN[C@@H](C)C(=O)N[C@H](C(=O)N1CCN(Cc2ccc(C#N)cc2)C[C@H]1C(=O)NC1CCCc2ccccc21)C(C)C` (stereo partly drawn) [Compound 43, (S)-4-(4-Cyano-benzyl)-1-[(S)-3-methyl-2-((S)-2-methylamino-propionylamino)-butyryl]-piperazine-2-carboxylic acid (1,2,3,4-tetrahydro-naphthalen-1-yl)-amide], the IC50 is below 10 µM.

With `CN[C@@H](C)C(=O)N[C@H](C(=O)N1CCN(c2ccc(F)cc2)C[C@H]1C(=O)NC1CCCc2ccccc21)C(C)C` (stereo partly drawn) [Compound 44, (S)-4-(4-Fluoro-phenyl)-1-[(S)-3-methyl-2-((S)-2-methylamino-propionylamino)-butyryl]-piperazine-2-carboxylic acid (1,2,3,4-tetrahydro-naphthalen-1-yl)-amide], the IC50 was below 10 µM.

By IC50 is commonly meant the midpoint of a concentration-inhibition curve.
